Assays:
DIO mice [1] = experiment: Chronic GIPA-2 study: circulating lipids, liver and fat depots in DIO mice; assay type: in vivo, mouse; details: day 28, n = 10
Experimental: For studying the chronic effects of GIPA-2, male C57BL/6JRj mice (n = 40) were fed a HFD (SSNIFF® diet #12492) for 43 weeks. DIO mice were randomized (n = 10 per group) based on baseline blood glucose and body weight. Liraglutide was dissolved in PBS plus 0.1% BSA (Vehicle1) and GIPA-2 in PBS (vehicle 2). Mice received one of the following four treatments daily for 28 days while still maintained on HFD: (1) vehicle 1 (SC) and vehicle 2 (SC); (2) 0.2 mg/kg liraglutide (SC) and vehicle 2; (3) vehicle 1 (SC) and 10 mg/kg GIPA-2 (SC); and (4) 0.2 mg/kg liraglutide (SC) plus 10 mg/kg GIPA-2 (SC). GIPA-2 dose levels were selected based on doses shown to sufficiently antagonize insulinotropic actions of exogenous GIP in acute IPGTT studies (Fig 1J) adjusted for single daily dosing over the 4-week treatment period. Fasted (4 hrs) blood glucose and insulin were measured on study day -4, 10 and 26. An OGTT was performed on day 17. On the day of the OGTT the fasted animals (4 hrs) received their daily doses of vehicles, liraglutide and GIPA-2 one hour before receiving a glucose bolus (2 g/kg). Blood glucose was measured before their daily dosing and at 0, 15, 30 60, 120, 180 and 240 min after glucose administration. An insulin tolerance test (ITT) was performed on day 24. Fasting (4 hrs) mice received their daily doses of vehicles, liraglutide and GIPA-2 one hour before receiving insulin (0.5 U/kg, intraperitoneal injection). Blood glucose was measured before their daily dosing and at 0, 15, 30 60, 120, 180 min after glucose administration. Similar measurements were performed as in the GIPA-1 study. […]
Fasting blood glucose was measured using a BIOSEN c-Line glucose meter (EKF-Diagnostics), insulin was measured using the Meso Scale Diagnostics platform, TG and TC were measured using commercial kits (Roche Diagnostics) on the Cobas C-501 autoanalyzer (Roche), and FFA levels were measured using a Wako Chemicals kit on the Cobas C-501 autoanalyzer, all according to the manufacturers’ instructions. Homeostatic model assessment of insulin resistance (HOMA-IR) was calculated using the following equation: [fasting serum glucose (mmol/L) × fasting serum insulin (pmol/L) / 22.5] to assess insulin resistance.
Fig 4 The effect of GIPR antagonism alone or in combination with liraglutide on lipid homeostasis in DIO mice. […] Statistical analysis was calculated using one-way ANOVA with Dunnett’s post-hoc test. *: p< 0.05, **: p < 0.01, ***: p < 0.001, ****: p<0.0001 compared to vehicle.
Supplementary file pone.0249239.s002.tif: S2 Fig The effect of GIPR antagonists alone or in combination with liraglutide on lipid homeostasis in DIO mice. […] Statistical analysis was calculated using one-way ANOVA with Dunnett’s post-hoc test. *: p< 0.05, **: p < 0.01, ***: p < 0.001, ****: p<0.0001 compared to vehicle. […]

DIO mice [2] = experiment: Chronic GIPA-2 study: body weight and food intake in DIO mice; assay type: in vivo, mouse; details: 28 days, HFD; liraglutide 0.2 mg/kg SC daily, GIPA-2 10 mg/kg SC daily; n = 10; vs vehicle (combination: vs liraglutide)
Experimental: For studying the chronic effects of GIPA-2, male C57BL/6JRj mice (n = 40) were fed a HFD (SSNIFF® diet #12492) for 43 weeks. DIO mice were randomized (n = 10 per group) based on baseline blood glucose and body weight. Liraglutide was dissolved in PBS plus 0.1% BSA (Vehicle1) and GIPA-2 in PBS (vehicle 2). Mice received one of the following four treatments daily for 28 days while still maintained on HFD: (1) vehicle 1 (SC) and vehicle 2 (SC); (2) 0.2 mg/kg liraglutide (SC) and vehicle 2; (3) vehicle 1 (SC) and 10 mg/kg GIPA-2 (SC); and (4) 0.2 mg/kg liraglutide (SC) plus 10 mg/kg GIPA-2 (SC). […] Fasted (4 hrs) blood glucose and insulin were measured on study day -4, 10 and 26. […] Blood glucose was measured before their daily dosing and at 0, 15, 30 60, 120, 180 and 240 min after glucose administration. […] Blood glucose was measured before their daily dosing and at 0, 15, 30 60, 120, 180 min after glucose administration. […]
Fig 2 Effects of chronic GIPR antagonism on body weight, food intake, and fasting blood glucose and insulin. […] Statistical analysis was calculated using two-way ANOVA with Tukey’s post-hoc test and one-way ANOVA for AUC with Dunnett’s post-hoc test. *: p< 0.05, **: p < 0.01, ***: p < 0.001, ****: p<0.0001 compared to vehicle.

liraglutide
circulating total cholesterol (TC) (DIO mice [1]): significantly reduced circulating TC and liver TG concentrations | liver TG (DIO mice [1]): significantly reduced circulating TC and liver TG concentrations | plasma FFA (DIO mice [1]): no effect on either plasma TG or concentrations of circulating FFA | plasma TG (DIO mice [1]): no effect on either plasma TG or concentrations of circulating FFA | body weight (DIO mice [2]): reduced both body weight and food intake | cumulative food intake (DIO mice [2]): reduced both body weight and food intake

Source: article PMC8011784, “Chronic peptide-based GIP receptor inhibition exhibits modest glucose metabolic changes in mice when administered either alone or combined with GLP-1 agonism” (PLoS ONE, 2021)
